{
  "source": "patent US9610299B2",
  "about": "“Compounds for the treatment of addiction” (Gilead Sciences, Inc., priority 2011, dated 2017)",
  "type_in_all_cases": "in vivo",
  "key": {"[1]": {"test_system": "Male SD rats", "test": "Rat nicotine self administration, acute treatment", "settings": "for inhibition of number of nicotine infusions: vs vehicle", "procedure": "Male SD rats were trained to self administer i.v. nicotine (0.03 mg/kg/inj) daily (Monday to Friday) in standard operant chambers with retractable levers (MED Associates, Inc) as previously published (Levin et al., 2003; Levin et al., 2007). During the daily 45 min session, rats received 0.05 ml infusion of 0.03 mg/kg/infusion of nicotine every time the active lever was pressed. A cue light and tone turned on for 0.5 sec together with the activation of a pump that delivered the nicotine solution. Daily sessions were run for at least 10 days before the initiation of drug testing. Solutions of compounds of Example 2 and Example 5 were prepared fresh daily in Formulation 2B: 25% PEG400/5% Vit E TPGS/1% SLS/69% water with 0.5% Methocel) for oral dosing. Compound of Example 2 doses were administered in a counterbalanced design for testing 1 hr before each nicotine session. Every rat received all drug doses and vehicle in a randomly assigned order. The oral drug administrations were made twice per week.\nCompound of Example 5 was tested in a study using 4 independent groups. Each group received either oral vehicle or 1 of the 3 doses of compound of Example 5 (5, 10 or 30 mg-eq/kg). […] The 5 mg/kg dose was ineffective."}, "[2]": {"test_system": "Male SD rats", "test": "Rat nicotine self administration, chronic treatment", "settings": "for inhibition of number of nicotine infusions: vs vehicle", "procedure": "Upon completion of the acute compound of Example 5 treatment study, the same animals were used to test the effect of 7-day chronic oral administration of compound of Example 5 in the nicotine self administration model. Rats were treated orally with compound of Example 5 (5, 10 or 30 mg-eq/kg) or vehicle 1 hr before nicotine self administration session for 7 consecutive days. […] Similar to the acute treatment, the 5 mg-eq/kg dose was ineffective (FIG. 7). […] Animals in nicotine self administration studies had to reach pre defined criteria (e.g. rat strain, minimum number of nicotine infusions, consistent baseline nicotine self administration throughout the study, patent iv catheters, etc.) to be included in analysis."}, "[3]": {"test_system": "male Sprague Dawley (SD) rats", "test": "Rat cocaine cue reinstatement", "settings": "for inhibition of cocaine cue-induced reinstatement (lever presses): 1 hr before session, vs vehicle", "procedure": "Training of male Sprague Dawley (SD) rats had 3 separate stages. First, during self administration, animals were trained to lever press for cocaine with presentation of concomitant cues associated with drug delivery. Rats that reached criteria for addiction were included in the study. Afterward, during cue extinction, cocaine-cue dependent behavior was extinguished. Lastly, during cocaine cue reinstatement, the effect of compounds was tested on lever presses upon cue presentation (FIG. 2).\nRats were trained to self administer i.v. cocaine (0.35 mg/kg/injection) daily (Monday to Friday) in standard operant chambers with retractable levers (Coulbourn Instruments, PA). During the daily 2 hr session, rats received a 0.05 ml infusion of 0.35 mg/kg cocaine every time the active lever was pressed. A cue light and tone turned on for 2 sec together with activation of a pump that delivered the cocaine solution. Rats were required to maintain an infusion rate of ≧20+ per day for at least 10 days before being moved to extinction training.\nDuring extinction sessions lever presses no longer produced cocaine infusion and cue light/tone presentation was absent. Rats received a maximum of 15 extinction sessions.\nOn the next day after reaching extinction criteria, rats were treated orally with vehicle (Formulation 2B: 25% PEG400/5% Vit E TPGS/1% SLS/69% water with 0.5% Methocel) or drug (compound of Example 2 or compound of Example 5) before the cue reinstatement session. Cue reinstatement began with a tone and cue light. This 2 hr session was identical to the self-administration session (cue light and tone present upon active lever press) except that no cocaine was delivered. The number of active lever presses was compared to extinction lever responding. This is considered a measure of reinstatement. The next day, rats were returned to extinction sessions for at least 2 or 3 more sessions. Rats then received a second and last reinstatement session with an opposite treatment to the one received on the first reinstatement session (vehicle or drug treatment). […] The light/tone presentation triggers this response and it is interpreted as a measure of reinstatement even though cocaine is not available."}},
  "data": [
    {"smiles": "O=C(NCc1ccc(-c2cc[nH]c(=O)c2)cc1)c1c(Cl)cccc1Cl", "note": "[Compound 2, 2,6-dichloro-N-[4-(2-oxo-1,2-dihydro-pyridin-4-yl)-benzyl]-benzamide]", "values": [
      {"measurement": "effect on number of nicotine infusions, in words", "setting": "[1]; 1 mg/kg oral", "value": "without effect"},
      {"measurement": "effect on number of nicotine infusions, in words", "setting": "[1]; 5 mg/kg oral", "value": "without effect"}
    ]},
    {"smiles": "O=C(NCc1ccc(-c2ccn(COP(=O)(O)O)c(=O)c2)cc1)c1c(Cl)cccc1Cl", "note": "[Compound 14, phosphoric acid mono-(4-{4-[(2,6-dichloro-benzoylamino)-methyl]-phenyl}-2-oxo-2H-pyridin-1-ylmethyl) ester]", "values": [
      {"measurement": "effect on number of nicotine infusions, in words", "setting": "[1]; 5 mg-eq/kg oral, independent groups", "value": "ineffective"},
      {"measurement": "inhibition of number of nicotine infusions", "setting": "[1]; 10 mg-eq/kg oral, independent groups", "value": 51, "unit": "%"},
      {"measurement": "inhibition of number of nicotine infusions", "setting": "[1]; 30 mg-eq/kg oral, independent groups", "value": 68, "unit": "%"},
      {"measurement": "development of tolerance to the therapeutic effect", "setting": "[2]; 7-day chronic oral administration (data not shown)", "value": "no development of tolerance"},
      {"measurement": "effect on number of nicotine infusions, in words", "setting": "[2]; 7-day chronic oral, 5 mg-eq/kg", "value": "ineffective"},
      {"measurement": "inhibition of number of nicotine infusions", "setting": "[2]; 7-day chronic oral, 10 mg-eq/kg", "value": 48, "unit": "%"},
      {"measurement": "inhibition of number of nicotine infusions", "setting": "[2]; 7-day chronic oral, 30 mg-eq/kg", "value": 62, "unit": "%"},
      {"measurement": "inhibition of cocaine cue-induced reinstatement (lever presses)", "setting": "[3]; 2.5 mg-eq/kg oral", "value": 30, "unit": "%"},
      {"measurement": "effect on cocaine cue reinstatement, in words", "setting": "[3]; 2.5 mg-eq/kg oral, lowest dose tested", "value": "not significantly different from vehicle"},
      {"measurement": "inhibition of cocaine cue-induced reinstatement (lever presses)", "setting": "[3]; 5 mg-eq/kg oral", "value": 59, "unit": "%"},
      {"measurement": "inhibition of cocaine cue-induced reinstatement (lever presses)", "setting": "[3]; 10 mg-eq/kg oral", "value": 55, "unit": "%"},
      {"measurement": "inhibition of cocaine cue-induced reinstatement (lever presses)", "setting": "[3]; 30 mg-eq/kg oral", "value": 50, "unit": "%"}
    ]}
  ]
}
